Among the test systems are SNB-19 CNS; SK-MEL-28 melanoma; ACHN renal; T-47D breast; RXF 393 renal; NCI-H522 lung; SK-MEL-5 melanoma; HCT-15 colon; NCI-H460 lung; MOLT-4 leukemia.
Holding throughout (test): NCI anticancer screen, dose series, 48 h

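Compound exposure: 48 hours, 5 concentrations, 96-well plates. GI50 is the concentration that inhibits growth by half. TGI: concentration producing complete growth inhibition.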

Turning to `COc1cc(Nc2nc3cc(N)cc(N)c3nc2-c2ccccc2)cc(OC)c1`, the GI50 was 58.3 µM in the assay on SNB-19 CNS; 14.7 µM in the assay on SK-MEL-28 melanoma; 5.65 µM in the assay with ACHN renal; 4.44 µM in the assay on T-47D breast; 3.15 µM with RXF 393 renal; 9.51 µM in the assay on NCI-H522 lung. Moreover, the figures for the GI50 in the assay on SK-MEL-5 melanoma, with HCT-15 colon and in the assay on NCI-H460 lung were 10.5 µM, 20 µM and 7.91 µM, respectively. Also, the TGI in the assay with SNB-19 CNS is over 100 µM; in the assay with SK-MEL-28 melanoma, 89.3 µM; in the assay with ACHN renal, 83.2 µM; in the assay on T-47D breast, 23 µM; with RXF 393 renal, 18.8 µM; in the assay with NCI-H522 lung it was 28.8 µM. Further, the values for the TGI in the assay with SK-MEL-5 melanoma, in the assay on HCT-15 colon and in the assay with NCI-H460 lung were 30 µM, over 100 µM and 52.8 µM, respectively.

Turning to `O=Cc1c(-c2cc(O)ccc2O)nc2sccn12`, the GI50 in the assay on MOLT-4 leukemia was 2.52 µM; with SNB-19 CNS, 42.6 µM; in the assay on SK-MEL-28 melanoma it was 23.8 µM; in the assay with ACHN renal it was 9.85 µM; in the assay on T-47D breast, 12.3 µM; in the assay with RXF 393 renal it was 7.83 µM. Further, the GI50 in the assay on SK-MEL-5 melanoma was 15.8 µM; with HCT-15 colon, 12.5 µM; in the assay on NCI-H460 lung it was 18 µM. Also, the TGI is 11.5 µM with MOLT-4 leukemia; over 100 µM in the assay on SNB-19 CNS; 96.6 µM in the assay with SK-MEL-28 melanoma; 22.6 µM in the assay with ACHN renal; over 100 µM in the assay with T-47D breast; 26.6 µM in the assay on RXF 393 renal. In addition, the TGI in the assay on SK-MEL-5 melanoma worked out at 35.6 µM; in the assay with HCT-15 colon it was 39.3 µM; in the assay on NCI-H460 lung, 40.8 µM.

In the case of `COCCn1cc(-c2csc(-c3c[nH]c4ccccc34)n2)c2cccnc21`, the GI50 with SNB-19 CNS is 16.2 µM; in the assay on SK-MEL-28 melanoma, 8.18 µM; with ACHN renal, 5.59 µM; in the assay on T-47D breast it was 0.418 µM; in the assay with RXF 393 renal, 5.76 µM; in the assay on SK-MEL-5 melanoma, 3.22 µM. The GI50 is 2.34 µM in the assay with HCT-15 colon and 3.4 µM in the assay on NCI-H460 lung. Further, the TGI in the assay with SNB-19 CNS is over 100 µM; in the assay on SK-MEL-28 melanoma, over 100 µM; in the assay with ACHN renal it was over 100 µM; in the assay on T-47D breast it was over 100 µM; in the assay on RXF 393 renal it was 64.3 µM; in the assay on SK-MEL-5 melanoma, over 100 µM. Also, the TGI in the assay with HCT-15 colon and with NCI-H460 lung was over 100 µM in each case.

`CCOP(=O)(OCC)C(NC(c1ccccc1)c1ccccc1)c1ccccc1` (stereo not given): the GI50 was 0.0995 µM with MOLT-4 leukemia; 48.1 µM in the assay with SNB-19 CNS; 41.1 µM in the assay on SK-MEL-28 melanoma; 13.2 µM in the assay on ACHN renal; 42.6 µM in the assay with T-47D breast; 17.1 µM with NCI-H522 lung. For the same molecule, the values for the GI50 with SK-MEL-5 melanoma, with HCT-15 colon and with NCI-H460 lung were 19 µM, 13.7 µM and 17.2 µM, respectively. Also, the TGI in the assay with MOLT-4 leukemia is 3.47 µM; with SNB-19 CNS, over 100 µM; with SK-MEL-28 melanoma, over 100 µM; in the assay on ACHN renal, 26.3 µM; with T-47D breast, 99 µM; in the assay with NCI-H522 lung, 48 µM. Also, the TGI in the assay on SK-MEL-5 melanoma is 33.3 µM; in the assay on HCT-15 colon, 27.6 µM; with NCI-H460 lung it was 41 µM.

Regarding `COc1cc2oc(=O)ccc2cc1C1OC(=O)C2OC21C` (stereo not given), the TGI in the assay with MOLT-4 leukemia, in the assay with SNB-19 CNS, in the assay with SK-MEL-28 melanoma, in the assay on ACHN renal, in the assay on T-47D breast and in the assay with RXF 393 renal was over 100 µM in each case. The TGI with SK-MEL-5 melanoma, in the assay with HCT-15 colon and in the assay on NCI-H460 lung was over 100 µM in each case.

Turning to `CC(=O)O[C@H]1C(=O)[C@@]2(C)C(C(OC(=O)c3ccccc3)[C@]3(O)CC(OC(=O)[C@H](OC(=O)CCC(=O)O)C(NC(=O)c4ccccc4)c4ccccc4)C(C)=C1C3(C)C)C1(OC(C)=O)COC1C[C@@H]2OC(=O)CCC(=O)O` (stereo not given in full), the TGI is over 20.6 µM with MOLT-4 leukemia; over 100 µM with SNB-19 CNS; 86.9 µM in the assay on SK-MEL-28 melanoma; over 100 µM with ACHN renal; over 100 µM in the assay with T-47D breast; over 26 µM in the assay with RXF 393 renal. Also, the TGI in the assay with SK-MEL-5 melanoma and with HCT-15 colon was over 100 µM in each case.

As to `O=c1c2ccccc2c2ccccc2c(=O)n1-c1cc2c3ccccc3ccc2c2ccccc12`, the TGI in the assay on SNB-19 CNS, in the assay on SK-MEL-28 melanoma, with ACHN renal, with T-47D breast, with RXF 393 renal and in the assay on NCI-H522 lung was over 100 µM throughout. In addition, the TGI with SK-MEL-5 melanoma, with HCT-15 colon and with NCI-H460 lung was over 100 µM in each case.

With `N#CC(=S)Nc1cccc(Cl)c1`, the TGI with MOLT-4 leukemia, with SNB-19 CNS, in the assay with SK-MEL-28 melanoma, in the assay with ACHN renal, in the assay on T-47D breast and in the assay with RXF 393 renal was over 100 µM each time. In addition, the TGI in the assay on SK-MEL-5 melanoma was 44.5 µM; in the assay with HCT-15 colon, over 100 µM; in the assay with NCI-H460 lung it was over 100 µM.

In the case of `O=C(O)CNc1c2ccccc2nc2ccccc12`, the TGI with MOLT-4 leukemia, with SNB-19 CNS, with SK-MEL-28 melanoma, with ACHN renal, in the assay on RXF 393 renal and in the assay with NCI-H522 lung was over 100 µM in each case. The TGI in the assay with SK-MEL-5 melanoma, in the assay on HCT-15 colon and in the assay on NCI-H460 lung was over 100 µM throughout.

As to `Cc1ccc(NC(=O)CC2C(=O)Nc3ccccc3S2=O)cc1C` (stereo not given), the TGI with MOLT-4 leukemia was over 100 µM; in the assay on SNB-19 CNS it was over 100 µM; in the assay with SK-MEL-28 melanoma it was over 100 µM; with ACHN renal it was over 100 µM; with RXF 393 renal, 41.8 µM; in the assay on NCI-H522 lung, over 100 µM. For the same molecule, the TGI with SK-MEL-5 melanoma, in the assay on HCT-15 colon and in the assay on NCI-H460 lung was over 100 µM throughout.

With `N[C@@H](Cc1c[nH]c2ccccc12)C(=O)NC1CCN(C(=O)c2c[nH]c3ccccc23)CC1`, the GI50 with MOLT-4 leukemia is 63.5 µM; in the assay on SNB-19 CNS, 99.8 µM; with SK-MEL-28 melanoma it was over 100 µM; in the assay with ACHN renal, over 100 µM; in the assay with T-47D breast, 74.5 µM; with NCI-H522 lung, over 100 µM. The GI50 in the assay with SK-MEL-5 melanoma is over 100 µM; with HCT-15 colon it was over 100 µM; in the assay with NCI-H460 lung, 79.9 µM. Further, the TGI with MOLT-4 leukemia, in the assay on SNB-19 CNS, in the assay on SK-MEL-28 melanoma, in the assay on ACHN renal, in the assay with T-47D breast and with NCI-H522 lung was over 100 µM in each case. Further, the TGI in the assay on SK-MEL-5 melanoma, in the assay with HCT-15 colon and in the assay on NCI-H460 lung was over 100 µM in each case.

Consider `O=c1n(C2CCCCC2)c(=C(Cl)Cl)c(=C(Cl)Cl)n1C1CCCCC1`, for which the TGI with MOLT-4 leukemia, with SNB-19 CNS, in the assay with SK-MEL-28 melanoma, in the assay on ACHN renal, in the assay with RXF 393 renal and with NCI-H522 lung was over 100 µM each time. For the same molecule, the TGI in the assay on SK-MEL-5 melanoma, in the assay on HCT-15 colon and with NCI-H460 lung was over 100 µM throughout.

For `O=C(O)c1ccc2c(c1)Cc1cc([N+](=O)[O-])ccc1-2`, the TGI with MOLT-4 leukemia, in the assay with SNB-19 CNS, in the assay with SK-MEL-28 melanoma, with ACHN renal, in the assay on T-47D breast and with NCI-H522 lung was over 100 µM throughout. Besides, the TGI in the assay on SK-MEL-5 melanoma, in the assay on HCT-15 colon and with NCI-H460 lung was over 100 µM throughout.

Turning to `COc1ccc(/C=N/N=C(\N)NO)cc1OC`, the TGI is over 100 µM with MOLT-4 leukemia; over 100 µM in the assay with SNB-19 CNS; over 100 µM in the assay on SK-MEL-28 melanoma; over 100 µM in the assay on ACHN renal; 67.4 µM in the assay with RXF 393 renal; 79.9 µM in the assay with NCI-H522 lung. In addition, the TGI with SK-MEL-5 melanoma was 58.3 µM; in the assay with HCT-15 colon, over 100 µM; in the assay with NCI-H460 lung it was over 100 µM.

`OCCCCC#Cc1ccccc1C#Cc1ccccc1`: the GI50 in the assay on MOLT-4 leukemia is 17.8 µM; with SNB-19 CNS, 0.153 µM; with SK-MEL-28 melanoma, 17 µM; in the assay with ACHN renal it was 15.2 µM; with T-47D breast, 7.53 µM; in the assay on NCI-H522 lung, 27 µM. Further, the results for the GI50 in the assay with SK-MEL-5 melanoma, in the assay on HCT-15 colon and in the assay with NCI-H460 lung were 14.4 µM, 11.7 µM and 22.4 µM, respectively. Further, the TGI with MOLT-4 leukemia was 63.8 µM; in the assay with SNB-19 CNS, 37.2 µM; with SK-MEL-28 melanoma it was 41.6 µM; in the assay on ACHN renal, 29.1 µM; with T-47D breast, over 100 µM; in the assay on NCI-H522 lung it was over 100 µM. Besides, the TGI came out at 28.6 µM with SK-MEL-5 melanoma, 24.2 µM in the assay with HCT-15 colon and 62.6 µM in the assay on NCI-H460 lung.

With `CCCCCCCCCCCCCCCCCC(=O)OCC(CN(C)CCN(C)C)OC(=O)CCCCCCCCCCCCCCCCC` (stereo not given), the TGI is 83.7 µM in the assay with MOLT-4 leukemia; over 100 µM in the assay on SNB-19 CNS; over 100 µM in the assay on SK-MEL-28 melanoma; over 100 µM in the assay on ACHN renal; over 100 µM in the assay on RXF 393 renal; over 100 µM with NCI-H522 lung. In addition, the TGI in the assay with SK-MEL-5 melanoma, with HCT-15 colon and with NCI-H460 lung was over 100 µM in each case.

For the origin of these results see PubChem BioAssay (NCI).
